# Laboratory results as given in US20260191887A1, “METHODS OF TREATING INFLAMMATION” (THERAPEUTIKOS, INC., priority 2022, published 2026).
# Assays:
# [1] = system: leukocytes migration to the peritoneal cavity; assay: Leukocyte migration to the peritoneal cavity in LPS-induced systemic inflammation in mice; type: in vivo, mouse; conditions: LPS 10 mg/kg I.P., compound 200 or 300 mg/kg I.V., vs LPS alone
# Protocol: (§1) Male C57BL6/J mice (8 to 10-week-old, 20-25 g) purchased from Charles River were used in this study. Mice were kept in the animal facility of the School of Medicine, University of Virginia (UVa). All experimental procedures were approved by the Ethics Committee on Animal Research of Medical School, UVa and are in accordance with the Guidelines of the National Council for Animal Experimentation Control (CONCEA).
# (§2) Moderate endotoxemia by LPS was induced with a single dose (10 mg/Kg, i.p.) of LPS (Escherichia coli 0111:B4, Sigma Chemical Co., St. Louis, MO, United States), 30 min after intravenous injection of NAG or NDX1 or NDX2 or the vehicle (saline). Two doses (200 mg/kg body weight and 300 mg/kg body weight) were tested for NAG, NDX1 and NDX2. Animals without any treatment were used to obtain the baseline data. Six hours after LPS treatment, inflammation assays were performed as described below. A total of 40 animals were randomly divided into 5 groups (8 mice/group): non-treatment (NT); 10 mg/Kg LPS plus saline (LPS); 10 mg/Kg LPS plus NAG (LPS+NAG); 10 mg/Kg LPS plus NDX1 (LPS+NDX1); and 10 mg/Kg LPS plus NDX2 (LPS+NDX2). The experiment was duplicated.
# Peritoneal cells were collected by lavage with ice-cold Dulbecco's modified Eagle's medium (DMEM, Gibco BRL, Gaithersburg, MD). […]
# [2] = system: IL-6; assay: Serum IL-6 ELISA in LPS-induced systemic inflammation in mice; type: in vivo, mouse; conditions: LPS 10 mg/kg I.P., compound 300 mg/kg I.V.
# Protocol: as §1, §2
# TNFa and IL-6 concentrations in the serum were determined using enzyme-linked immunosorbent assay (ELISA) according to the manufacturer's instructions. […] The resultant solutions were read at 450 nm on a microplate reader.
# [3] = system: IL1β; assay: RT-PCR of IL1β mRNA in LPS-activated RAW264.7 macrophages; type: cell-based, mouse; conditions: LPS 100 ng/mL; NDX1 0.1 mM and 0.5 mM, NAG 0.5 mM, NDX2 0.5 mM; n=4
# Protocol: (§3) Mouse RAW264.7 macrophage cell line (ATCC; Manassas, VA, USA) was maintained in DMEM culture medium containing 10% FBS and 1% antibiotic mix. For cell treatment, the test drugs at different doses were added to the culture 0.5 h prior to addition of 100 ng/mL LPS (Sigma-Aldrich Co., St Louis, MO, USA) and then cells were co-treated with LPS for 24 hours.
# Total RNA was purified using an RNeasy kit (QIAGEN Sciences, Valencia, CA) according to the protocol provided by the manufacturer, and was stored at −80° C. Synthesis of cDNA from total RNA and the quantitative PCR were carried out by using the iScript™ cDNA synthesis kit and the iQ™ SYBR Green Supermix kit (Bio-Rad Laboratories, Hercules, CA), respectively. The target genes included iNOS, IL-6 and IL-1β. Gene of 18s ribosomal RNA was used as an internal control. The threshold cycle (CT) value was calculated from amplification plots. Data was analyzed using the 2-ΔΔCT method with 18s rRNA serving as the reference. Gene expression was normalized to the control group in each experiment and represented as fold of change. […]
# [4] = system: mouse iNOS; assay: Western blot of iNOS expression in LPS-activated RAW264.7 macrophages; type: cell-based; conditions: LPS 100 ng/mL; NDX1 0.1 and 1 mM, NDX2 and NAG 0.5 and 5 mM
# Protocol: as §3
# The cellular proteins were prepared from cells growing on a 6-well plate (approximately 500,000/well) using a commercial cell lysis buffer (Thermo Scientific). Then the protein concentration was determined using the Bradford protein assay kit (Bio-Rad, Hercules, CA, USA). The samples containing 100 μg proteins were run on 10% SDS-polyacrylamide gels at a […] and electro-transferred to nitrocellulose membranes (Thermo Scientific) at a constant voltage of 10 V overnight. […] Using the magic wand tool from the tool palette, the area of each band was selected, and the mean histogram were recorded and then charted. […]
smiles,measurement,setting,value
"CC(=O)N[C@H]1C(O)O[C@H](CO)[C@@H](O)[C@@H]1O (stereo partly shown) [NAG, N-acetyl glucosamine]",decrease of leukocytes migration to the peritoneal cavity (WST-1 test or DAPI staining),[1],neither NAG nor NDX2 did
same,decrease of serum level of IL-6,[2],significantly decrease serum levels
same,inhibition of IL1β mRNA expression (RT-PCR),[3],could inhibit IL1β
same,rank order for inhibition of iNOS expression (western blot),[4],NDX1>NDX2>NAG
